Measurements from the supplement of paper PMC10307832.

How the values were obtained:
Test in all cases: relative viability (nuclei count vs DMSO), 5 days (fraction); higher = more cells survive
kb NB 142-70 + Dasatinib = compound: C1CSC2=C(C(=O)N1)SC3=C2C=C(C=C3)O [kb NB 142-70] + Cc1nc(Nc2ncc(C(=O)Nc3c(C)cccc3Cl)s2)cc(N2CCN(CCO)CC2)n1 [Dasatinib] (partner 0.075 µM)
In short: (§1)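 The day after seeding in 1536-well plates, lung cancer cell lines were treated by pin tool with a single drug, or with a fixed anchor-drug dose together with five library-drug doses (not always all listed) in √10 steps. After 5 days, a combined fix-and-stain solution (final 0.05% Triton X-100, 1% formaldehyde, 1 ug/ml Hoechst) was added. Nuclei counted on 4× images gave relative viability as treated counts over vehicle counts, reported as the median of duplicate plates.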

[1] = compound: C1CSC2=C(C(=O)N1)SC3=C2C=C(C=C3)O [kb NB 142-70] + Nc1nc2[nH]cc(CCc3ccc(C(=O)N[C@@H](CCC(=O)O)C(=O)O)cc3)c2c(=O)[nH]1 [Pemetrexed] (partner 0.2 µM)
In short: as §1

kb NB 142-70 + Olaparib = compound: C1CSC2=C(C(=O)N1)SC3=C2C=C(C=C3)O [kb NB 142-70] + O=C(c1cc(Cc2n[nH]c(=O)c3ccccc23)ccc1F)N1CCN(C(=O)C2CC2)CC1 [Olaparib] (partner 8 µM)
In short: as §1

[2] = compound: NCC(=O)Nc1ccc(-n2nc(C(F)(F)F)cc2-c2ccc3c(ccc4ccccc43)c2)cc1 + CS(=O)(=O)CCNCc1ccc(-c2ccc3ncnc(Nc4ccc(OCc5cccc(F)c5)c(Cl)c4)c3c2)o1 [Lapatinib] (partner 2 µM)
In short: as §1

[3] = compound: NCC(=O)Nc1ccc(-n2nc(C(F)(F)F)cc2-c2ccc3c(ccc4ccccc43)c2)cc1 + C[C@@H](Oc1cc(-c2cnn(C3CCNCC3)c2)cnc1N)c1c(Cl)ccc(F)c1Cl [Crizotinib] (partner 1 µM)
In short: as §1

| Cell Line | relative viability (kb NB 142-70 + Dasatinib; first compound 0.1 µM) | relative viability (kb NB 142-70 + Dasatinib; first compound 1 µM) | relative viability (kb NB 142-70 + Dasatinib; first compound 3.162 µM) | relative viability ([1]; first compound 0.1 µM) | relative viability ([1]; first compound 1 µM) | relative viability ([1]; first compound 3.162 µM) | relative viability (kb NB 142-70 + Olaparib; first compound 0.1 µM) | relative viability (kb NB 142-70 + Olaparib; first compound 1 µM) | relative viability (kb NB 142-70 + Olaparib; first compound 3.162 µM) | relative viability ([2]; first compound 0.02 µM) | relative viability ([2]; first compound 0.06325 µM) | relative viability ([2]; first compound 0.2 µM) | relative viability ([2]; first compound 0.6325 µM) | relative viability ([2]; first compound 2 µM) | relative viability ([3]; first compound 0.02 µM) | relative viability ([3]; first compound 0.06325 µM) | relative viability ([3]; first compound 0.2 µM) | relative viability ([3]; first compound 0.6325 µM) | relative viability ([3]; first compound 2 µM) |
| --- | --- | --- | --- | --- | --- | --- | --- | --- | --- | --- | --- | --- | --- | --- | --- | --- | --- | --- | --- |
| NCI-H460 | 0.504 | 0.422 | 0.336 | 0.058 | 0.0629 | 0.0654 | 0.396 | 0.509 | 0.526 | 0.965 | 0.956 | 0.991 | 0.845 | 0.576 | 0.922 | 0.952 | 0.931 | 0.811 | 0.688 |
| NCI-H1666 | 0.849 | 0.808 | 0.732 | 0.811 | 0.977 | 0.897 | 0.73 | 0.78 | 0.823 | 0.59 | 0.61 | 0.588 | 0.744 | 0.604 | 1 | 0.904 | 1.16 | 0.854 | 0.982 |
| NCI-H1651 | 0.438 | 0.44 | 0.174 | 0.598 | 0.578 | 0.552 | 0.181 | 0.181 | 0.187 | 0.715 | 0.758 | 0.782 | 0.909 | 0.85 | 0.803 | 0.853 | 0.875 | 0.881 | 0.952 |
| NCI-H1755 | 0.456 | 0.425 | 0.419 | 0.43 | 0.403 | 0.519 | 0.934 | 0.809 | 0.883 | 1.01 | 1 | 1.07 | 1.02 | 1.06 | 0.955 | 0.863 | 0.904 | 0.891 | 0.862 |
| NCI-H661 | 0.916 | 0.89 | 0.796 | 0.967 | 0.867 | 0.856 | 0.731 | 0.733 | 0.759 | 0.526 | 0.521 | 0.44 | 0.445 | 0.556 | 1.16 | 0.905 | 1.11 | – | 1.01 |
| HARA | 0.3 | 0.188 | 0.237 | 0.251 | 0.293 | 0.225 | 0.873 | 0.602 | 0.547 | 0.649 | 0.801 | 0.829 | 0.822 | 0.989 | 1.06 | 1.01 | 1.04 | 1.05 | 1.13 |
| NCI-H596 | 0.551 | 0.571 | 0.442 | 0.484 | 0.507 | 0.461 | 0.658 | 0.579 | 0.788 | 1.13 | 1.09 | 1.11 | 1.09 | 1.19 | 1 | 1.12 | 1.01 | 1.05 | 0.943 |
| NCI-H23 | 0.792 | 0.713 | 0.287 | 0.621 | 0.594 | 0.367 | 0.314 | 0.318 | 0.241 | 1.18 | 0.96 | 1.12 | 1.12 | 0.955 | 0.512 | 0.501 | 0.542 | 0.509 | 0.565 |
| LCLC-97TM1 | 0.787 | 0.95 | 0.882 | 0.174 | 0.186 | 0.182 | 0.404 | 0.371 | 0.198 | 0.816 | 1.13 | – | 0.981 | 0.893 | 0.344 | 0.34 | – | 0.348 | 0.29 |
